Assay results reported in PubChem BioAssay (NCI).
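A five-concentration, 48-hour dose response in 96-well plates underlies each endpoint, interpolated linearly between surrounding concentrations. GI50 is the concentration that inhibits growth by half. TGI: total growth inhibition.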

How the values were obtained:
Assay in all cases: DTP human tumour cell line panel, 48 h
CAKI-1 renal = test system: CAKI-1 renal
SNB-19 CNS = test system: SNB-19 CNS
HL-60(TB) leukemia = test system: HL-60(TB) leukemia
U251 CNS = test system: U251 CNS

`[O-]/[N+](=N/c1ncc(-c2ccccc2)cn1)c1ncc(-c2ccccc2)cn1` gave a TGI (CAKI-1 renal) greater than 100 µM, a TGI (SNB-19 CNS) greater than 100 µM and a TGI (HL-60(TB) leukemia) greater than 100 µM. For the same compound, the TGI (U251 CNS) was greater than 100 µM.
With `Nc1ncnc2c1ncn2[C@@H]1C[C@H](NO)[C@@H](O)[C@H]1O` the TGI (SNB-19 CNS) was greater than 100 µM and the TGI (U251 CNS) was greater than 100 µM.
Work on `COC(=O)/C=C/C(=O)Nc1cc(Cl)c(Cl)cc1CC(=O)N(C)[C@H]1CCCC[C@@H]1N1CCCC1` yielded a TGI (CAKI-1 renal) of 38.2 µM, a TGI (SNB-19 CNS) of 37.7 µM and a TGI (HL-60(TB) leukemia) of 5.33 µM. For the same compound, the TGI (U251 CNS) was 31.6 µM.
`O=C1OC(C2Cc3ccc4c(c3C2=O)CCCC4)c2ccccc21` (stereo not drawn) showed a TGI (CAKI-1 renal) greater than 100 µM, a TGI (SNB-19 CNS) greater than 100 µM and a TGI (HL-60(TB) leukemia) greater than 100 µM. It also gave a TGI (U251 CNS) greater than 100 µM.
Compound `CC1(C)CC2C(/C1=N/O)C1(C)CCCC2(C)C1O` (stereo not drawn) has a TGI (CAKI-1 renal) greater than 100 µM, a TGI (SNB-19 CNS) greater than 100 µM and a TGI (HL-60(TB) leukemia) greater than 100 µM. The TGI (U251 CNS) was greater than 100 µM.
`N/N=C(/CC(O)(C(F)(F)F)C(F)(F)F)c1ccccc1` was tested, and the TGI (CAKI-1 renal) was greater than 10 µM, the TGI (SNB-19 CNS) was greater than 10 µM and the TGI (HL-60(TB) leukemia) was greater than 10 µM. The TGI (U251 CNS) was greater than 10 µM.
In the case of `CNc1cccc2c1C(C)C[C@]1(C)C(=O)Nc3ccccc3[C@H]21` (stereo partly drawn), the TGI (CAKI-1 renal) is reported as 63.7 µM, the TGI (SNB-19 CNS) is reported as 54 µM and the TGI (HL-60(TB) leukemia) is reported as greater than 100 µM.
In the case of `COc1cccc(N2C(=O)C3c4[nH]c5ccc(C)cc5c4C4CCC(C)CC4C3C2=O)c1` (stereo not drawn), the TGI (CAKI-1 renal) is reported as greater than 100 µM, the TGI (SNB-19 CNS) is reported as greater than 100 µM and the TGI (HL-60(TB) leukemia) is reported as 25.3 µM. The TGI (U251 CNS) was greater than 100 µM.
`O=C1Nc2ccccc2/C1=N/N1C(=O)/C(=C/c2ccccc2S)N=C1c1ccccc1` gave a TGI (CAKI-1 renal) greater than 100 µM, a TGI (SNB-19 CNS) greater than 100 µM and a TGI (HL-60(TB) leukemia) greater than 100 µM. It also gave a TGI (U251 CNS) greater than 100 µM.
Compound `O=[N+]([O-])c1cc2ccc1OCc1cccc(n1)COc1ccc(cc1[N+](=O)[O-])C=NCCCCCCCCN=C2` has a TGI (CAKI-1 renal) greater than 100 µM, a TGI (SNB-19 CNS) greater than 100 µM and a TGI (U251 CNS) greater than 100 µM.
In the case of `CC1(C)N([O-])[N+](=O)C1(Br)c1ccccc1` (stereo not drawn), the TGI (CAKI-1 renal) is reported as greater than 100 µM, the TGI (SNB-19 CNS) is reported as greater than 100 µM and the TGI (HL-60(TB) leukemia) is reported as greater than 100 µM. It also gave a TGI (U251 CNS) greater than 100 µM.
`Cc1ccc(C2=Nn3c(nc4sc5c(c4c3=O)CCCC5)SC2)cc1` was tested, and the TGI (CAKI-1 renal) was greater than 100 µM, the TGI (HL-60(TB) leukemia) was greater than 100 µM and the TGI (U251 CNS) was greater than 100 µM.
In the case of `O=c1cc(-c2ccc3ccccc3c2)[nH]c2ncccc12`, the GI50 (CAKI-1 renal) is reported as 5.63 µM, the TGI (CAKI-1 renal) is reported as greater than 100 µM and the TGI (SNB-19 CNS) is reported as greater than 100 µM. For the same compound, the GI50 (HL-60(TB) leukemia) was 1800 nM, the TGI (HL-60(TB) leukemia) was 4.55 µM and the GI50 (U251 CNS) was 4.35 µM. It also gave a TGI (U251 CNS) greater than 100 µM.
For `CCC1(CC)C(=O)NN(C(=O)c2ccc(Cl)cc2)C1=O`, the TGI (CAKI-1 renal) was greater than 100 µM, the TGI (SNB-19 CNS) was greater than 100 µM and the TGI (HL-60(TB) leukemia) was greater than 100 µM. It also gave a TGI (U251 CNS) greater than 100 µM.
`Oc1ccccc1-c1n[nH]c(-c2ccccc2O)n1` gave a TGI (CAKI-1 renal) greater than 100 µM, a TGI (HL-60(TB) leukemia) greater than 23.7 µM and a TGI (U251 CNS) greater than 100 µM.
Work on `O=C(/N=C1/OC(CN2CCOCC2)CN1C(=O)Nc1ccccc1)Nc1ccccc1` (stereo not drawn) yielded a TGI (CAKI-1 renal) greater than 100 µM, a TGI (SNB-19 CNS) greater than 100 µM and a TGI (HL-60(TB) leukemia) greater than 100 µM. It also gave a TGI (U251 CNS) greater than 100 µM.
`CN(C(=O)c1cc2c(s1)sc1c(=O)n(C)c3ccccc3c12)c1ccccc1` showed a TGI (CAKI-1 renal) of 40.8 µM, a TGI (SNB-19 CNS) greater than 100 µM and a TGI (U251 CNS) greater than 100 µM.
Compound `Cc1ccc2nc(-c3ccc(-c4nc5ccc(C)cc5o4)c(O)c3)oc2c1` has a TGI (SNB-19 CNS) greater than 100 µM, a TGI (HL-60(TB) leukemia) greater than 100 µM and a TGI (U251 CNS) greater than 100 µM.
With `COC(=O)/C(C#N)=C(/NCc1ccccc1)Nc1ccccc1` the TGI (CAKI-1 renal) was greater than 100 µM, the TGI (SNB-19 CNS) was greater than 100 µM and the TGI (HL-60(TB) leukemia) was greater than 100 µM. It also gave a TGI (U251 CNS) greater than 100 µM.
With `COC(=O)C1Cc2c([nH]c3ccccc23)-c2[nH]c3ccccc3c2CC(NC(C)=O)C(=O)NCC(=O)NCC(=O)N1` (stereo not drawn) the TGI (CAKI-1 renal) was greater than 100 µM, the TGI (SNB-19 CNS) was greater than 100 µM and the TGI (HL-60(TB) leukemia) was greater than 100 µM. For the same compound, the TGI (U251 CNS) was greater than 100 µM.
With `CC(C)(C)Cc1cc(O)ccc1O` the TGI (CAKI-1 renal) was greater than 100 µM, the TGI (SNB-19 CNS) was greater than 100 µM and the TGI (HL-60(TB) leukemia) was 26.6 µM. It also gave a TGI (U251 CNS) greater than 100 µM.
In the case of `COc1ccc(C(c2cc(OC)c(OC)c(OC)c2)N2C(=O)CCC2C(=O)O)cc1` (stereo not drawn), the TGI (CAKI-1 renal) is reported as greater than 100 µM, the TGI (SNB-19 CNS) is reported as greater than 100 µM and the TGI (HL-60(TB) leukemia) is reported as greater than 100 µM. For the same compound, the TGI (U251 CNS) was greater than 100 µM.
Work on `CC(C)N(C(=O)C12C3(C(=O)C(C)(C)C)C4C5(C#N)C3C1(C(=O)C(C)(C)C)C5C42C(=O)C(C)(C)C)C(C)C` (stereo not drawn) yielded a TGI (CAKI-1 renal) greater than 100 µM, a TGI (SNB-19 CNS) greater than 100 µM and a TGI (HL-60(TB) leukemia) greater than 100 µM. It also gave a TGI (U251 CNS) greater than 100 µM.
With `COc1cc(/C=C2\C(=O)N(c3ccc(NC(C)=O)cc3)C(c3ccccc3)S2(=O)=O)cc(OC)c1OC` (stereo not drawn) the TGI (CAKI-1 renal) was greater than 100 µM, the TGI (SNB-19 CNS) was greater than 100 µM and the TGI (HL-60(TB) leukemia) was 79.1 µM. The TGI (U251 CNS) was greater than 100 µM.
With `COc1cc(OC)c2nc(C)c3c(c2c1)OCC3` the TGI (CAKI-1 renal) was 72 µM, the TGI (SNB-19 CNS) was greater than 100 µM and the TGI (HL-60(TB) leukemia) was greater than 100 µM. It also gave a TGI (U251 CNS) greater than 100 µM.
Compound `COc1ccc2oc(=O)c(-c3csc(-c4ccccc4)n3)cc2c1` has a TGI (CAKI-1 renal) greater than 100 µM, a TGI (SNB-19 CNS) of 45 µM and a TGI (HL-60(TB) leukemia) greater than 100 µM. For the same compound, the TGI (U251 CNS) was 52.4 µM.
`CCNC1=C(NC(=O)c2ccc(OC)cc2)C(=O)c2ccccc2C1=O` gave a TGI (SNB-19 CNS) greater than 100 µM, a TGI (HL-60(TB) leukemia) greater than 100 µM and a TGI (U251 CNS) greater than 100 µM.
Compound `CNC(=O)OCc1nc(N=[N+]=[N-])n(C)c1COC(=O)NC` has a TGI (CAKI-1 renal) of 61 µM, a TGI (HL-60(TB) leukemia) of 48.9 µM and a TGI (U251 CNS) greater than 100 µM.
`CN(C)CCN=C1Nc2ccccc2C(=O)N2CSCC12` (stereo not drawn) gave a TGI (CAKI-1 renal) greater than 100 µM, a TGI (SNB-19 CNS) greater than 100 µM and a TGI (U251 CNS) greater than 100 µM.
`COCCNC1CCC(=O)c2[nH]c3ccccc3c21` (stereo not drawn) gave a TGI (CAKI-1 renal) greater than 100 µM, a TGI (SNB-19 CNS) greater than 100 µM and a TGI (HL-60(TB) leukemia) greater than 100 µM. The TGI (U251 CNS) was greater than 100 µM.
Compound `Cc1c(-c2ccccc2)c(C#N)c2nnn(C)c(=O)n12` has a TGI (CAKI-1 renal) greater than 100 µM, a TGI (SNB-19 CNS) greater than 100 µM and a TGI (HL-60(TB) leukemia) greater than 100 µM. The TGI (U251 CNS) was greater than 100 µM.
For `CC(C)=CC[C@H]1C[C@@]2(CC=C(C)C)C(=O)/C(=C(/O)c3ccccc3)C(=O)[C@](CC=C(C)C)(C2=O)C1(C)C`, the TGI (CAKI-1 renal) was 28.9 µM, the TGI (SNB-19 CNS) was 20.4 µM and the TGI (U251 CNS) was 20.8 µM.
`Cc1ccc(S(=O)(=O)OI(O)CC(F)(F)F)cc1` gave a TGI (CAKI-1 renal) greater than 100 µM, a TGI (HL-60(TB) leukemia) greater than 100 µM and a TGI (U251 CNS) greater than 100 µM.
For `N#CCN1CCN(CC#N)CCN(CC#N)CCN(CC#N)CC1`, the TGI (CAKI-1 renal) was greater than 100 µM, the TGI (SNB-19 CNS) was greater than 100 µM and the TGI (HL-60(TB) leukemia) was greater than 100 µM. The TGI (U251 CNS) was greater than 100 µM.
Compound `CC1(Cc2cc3c(cc2C2(c4ccc([N+](=O)[O-])cc4)OCCO2)OCO3)OCCO1` has a TGI (CAKI-1 renal) greater than 100 µM, a TGI (SNB-19 CNS) greater than 100 µM and a TGI (HL-60(TB) leukemia) greater than 100 µM. For the same compound, the TGI (U251 CNS) was greater than 100 µM.
Compound `O=C1O/C(=C\C=C\CO)C=C1/C=C/CO` has a TGI (CAKI-1 renal) of 28.3 µM, a TGI (SNB-19 CNS) of 51.4 µM and a TGI (HL-60(TB) leukemia) of 54.7 µM. It also gave a TGI (U251 CNS) greater than 100 µM.
With `O=C1CC2(CCNCC2)C(=O)N1N1CCCCC1` the TGI (CAKI-1 renal) was greater than 100 µM, the TGI (SNB-19 CNS) was greater than 100 µM and the TGI (HL-60(TB) leukemia) was greater than 100 µM. The TGI (U251 CNS) was greater than 100 µM.
